In patent publication US20110172171A1, “TAURINE OR TAURINE-LIKE SUBSTANCES FOR THE PREVENTION OF BRAIN OEDEMA” (priority 2008, published 2011):
Where “and” joins values, the source holds several entries; their conditions need not be identical. Equal values may be shown once. Entries after “also recorded” stand apart in the source; their conditions may differ.

System: white matter adjacent to the cerebellar nuclei, and the nuclei
Experiment: Vigabatrin-induced brain vacuolation in rats, histology of cerebellar sections scored by light microscopy
Type: in vivo, Wistar rats
Parameters: key to vacuolation score (grade) of cerebellum: 1: No or occasional individual vacuoles in perinuclear white matter.; 2: Mild to moderate regional vacuolation of perinuclear white matter, sometimes extending into nucleus.; 3: Extensive, widespread vacuolation of perinuclear white matter, often with involvement of adjacent nuclear regions. Vacuolation may extend to folial white matter
Details: for vacuolation score (grade) of cerebellum: blinded scoring; for vacuolation in the brain tissue (histological appearance): cerebellar sections
Procedure: Animal treatments: As described previously (Duboc A. et al. 2004; Izumi Y. et al. 2004), Wistar rats Rj Wi IOPS Han were purchased from Janvier (Le Genest-St-Isle, France) at between six and seven weeks of age. vigabatrin dissolved in 0.9% NaC1 was administered at 40mg (125 mg/ml, 0.32m1) to rats by daily intraperitoneal injection for 65 days. These daily doses (rats: 200mg/kg) are in-line with those described for the treatment of epilepsy (adult patients: […]; children: 50-75mg/kg; or infants: 100-150 mg/kg) (Chiron C. et al. 1997; Lux AL. et al. 2004; Aicardi J. et al. 1996). Taurine supplementation was given in drinking water at a concentration of 0.1M.
Histology: Rats were anesthetized by intraperitoneal injection (0.8 to 1.2 ml/kg) of a solution containing ketamine (40 mg/ml) and xylazine (4 mg/ml Rompum). Rat heads were removed and an opening created in the calvarium. These were then immersion fixed in 4% buffered formol (T/02170015, MMFrance) and then placed in phosphate buffered saline. Brains were then removed from the skulls and placed in 10% neutral buffered formalin. Brains were trimmed and their cerebellar nuclei placed in 10% buffered formalin and embedded in paraffin. Sections of the cerebellar nuclei were stained with hematoxylin and eosin.
Vacuolation of cerebellum was assessed by light microscopy, with the region of emphasis being the white matter adjacent to the cerebellar nuclei, and the nuclei. Vacuolation was scored as follows.
1- No or occasional individual vacuoles in perinuclear white matter.
2- Mild to moderate regional vacuolation of perinuclear white matter, sometimes extending into nucleus.
3- Extensive, widespread vacuolation of perinuclear white matter, often with involvement of adjacent nuclear regions. Vacuolation may extend to folial white matter

vacuolation score (grade) of cerebellum (rats, vigabatrin 40 mg (200mg/kg) daily intraperitoneal injection for 65 days, n=7) | SMILES | vacuolation score (grade) of cerebellum (vigabatrin-treated rats (200mg/kg daily i.p., 65 days) with taurine 0.1M in drinking water, n=7 (grade 1 n=3, grade 2 n=4), 200 mg/kg) | vacuolation in the brain tissue (histological appearance) (vigabatrin-treated rats supplemented with taurine (0.1M in drinking water), FIG. 1C) | vacuolation in the brain tissue (histological appearance) (vigabatrin-treated rats, FIG. 1B)
 | NCCS(=O)(=O)O [taurine, 2-aminoethanesulfonic acid] | 1 and 2 | mild and vacuoles were present in some animals but appeared at a much lower density | 
3 | C=CC(N)CCC(=O)O (stereo not shown) [vigabatrin, 4-amino-5-hexenoic acid, reference compound] |  |  | extensive; also recorded: a great number of vacuoles
